Measurements from PubChem BioAssay (NCI).
“And” between values parts separate entries of the source, which are not always exact repeats. Identical values can stand only once.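 Following 48 hours of exposure in 96-well plates, responses at five concentrations were used to interpolate endpoints linearly. GI50 is the concentration that inhibits growth by half. TGI is the concentration that stops growth completely.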

What was measured:
Test in all cases: growth of human tumour cells (NCI), 48 h
DMS 273 small cell lung = tested on: DMS 273 small cell lung
786-0 renal = tested on: 786-0 renal
HCT-116 colon = tested on: HCT-116 colon
IGROV1 ovarian = tested on: IGROV1 ovarian
MOLT-4 leukemia = tested on: MOLT-4 leukemia
TK-10 renal = tested on: TK-10 renal
CAKI-1 renal = tested on: CAKI-1 renal
HCC-2998 colon = tested on: HCC-2998 colon
HS 578T breast = tested on: HS 578T breast
SNB-78 CNS = tested on: SNB-78 CNS

| SMILES | TGI (DMS 273 small cell lung) | TGI (786-0 renal) | TGI (HCT-116 colon) | TGI (IGROV1 ovarian) | TGI (MOLT-4 leukemia) | TGI (TK-10 renal) | GI50 (CAKI-1 renal) | TGI (CAKI-1 renal) | GI50 (786-0 renal) | GI50 (HCT-116 colon) | GI50 (HCC-2998 colon) | TGI (HCC-2998 colon) | GI50 (HS 578T breast) | TGI (HS 578T breast) | GI50 (IGROV1 ovarian) | GI50 (MOLT-4 leukemia) | GI50 (TK-10 renal) | TGI (SNB-78 CNS) |
| --- | --- | --- | --- | --- | --- | --- | --- | --- | --- | --- | --- | --- | --- | --- | --- | --- | --- | --- |
| C/C(=N\NC(=O)CC(=O)Nc1ccc(Cl)cc1)c1cc2ccccc2oc1=O | > 100 µM | > 100 µM | > 100 µM | > 100 µM | > 100 µM | > 100 µM |  |  |  |  |  |  |  |  |  |  |  |  |
| CCCCCCCCOc1ccc(/C=N/Nc2cc(C)nc3ccc(Cl)cc23)cc1 |  | 3.66 µM | 3.81 µM | 3.67 µM | 4.93 µM | 3.33 µM | 1.69 µM | 3.11 µM | 1.86 µM | 1.83 µM | 2.03 µM | 3.59 µM | 2.23 µM | 4.51 µM | 1.84 µM | 2.05 µM | 1.91 µM |  |
| Nc1c(C(=O)c2cccc(OCCN3CCOCC3)c2)cnn1-c1ccc(F)cc1 |  | > 25 µM | > 25 µM | > 25 µM | > 25 µM | > 25 µM | > 25 µM | > 25 µM | > 25 µM | > 25 µM | > 25 µM | > 25 µM | > 25 µM | > 25 µM | > 25 µM | > 25 µM | > 25 µM |  |
| O=C1c2cccnc2-c2nc(/C=C/c3ccccc3)cc3c2c1nc1ccccc13 |  | 6.48 µM | 6.14 µM | 4.44 µM | 10.8 µM | 43.2 µM | 3.05 µM | 10.3 µM | 2.26 µM | 1.95 µM | 1.81 µM | 3.2 µM | 3.74 µM | 18 µM | 1.59 µM | 1.57 µM | 19.1 µM |  |
| CC[N+](CC)=c1ccc2nc3c(cc(NCc4ccccc4)c4ccccc43)oc-2c1 |  | 1.85 µM | 0.709 µM | 1.67 µM | 3.17 µM | 2.29 µM | 0.231 µM | 1.54 µM | 0.497 µM | 0.154 µM | 0.338 µM | 1.26 µM | 0.522 µM | 3.27 µM | 0.258 µM | 0.346 µM | 0.671 µM |  |
| CC1C=C(OC(=O)c2ccccc2)C(=O)C(n2cc(F)c(=O)n(C(=O)c3ccccc3)c2=O)O1 (centres undefined) | > 100 µM | > 100 µM | > 100 µM | > 100 µM | 71.4 µM | > 100 µM |  | 81.4 µM |  |  |  |  |  |  |  |  |  | > 100 µM |
| O=C1c2ccccc2S(=O)(=O)N1CSC(=S)N1CCCC1 |  | > 100 µM | > 100 µM | > 100 µM | > 100 µM | > 100 µM | > 100 µM | > 100 µM | > 100 µM | 63.8 µM | > 53.4 µM | > 100 µM | > 100 µM | > 100 µM | 19 µM | 8.3 µM | > 100 µM |  |
| COc1cc(-c2oc3c(OC)c(OC)cc(O)c3c(=O)c2OC)ccc1O |  | > 100 µM | > 100 µM | > 100 µM and 35.5 µM | 31.5 µM | 22.8 µM and 40.2 µM |  | > 50 µM |  |  | > 100 µM and 31 µM | > 100 µM |  | 29.7 µM |  |  |  | > 100 µM |
